Structures can show the parent of a compound that is named as a salt.
Experiments:
sugar beet callus [1] = test: Shoot formation from sugar beet callus in DZNep-supplemented medium; assay type: cell-based, Beta vulgaris; conditions: 8 days
Text: The applied method is based on the publication by Kischenko et al. (2005. Production of transgenetic sugarbeet (Beta vulgaris L.) plants resistant to phosphinothricin. Cell biology international, 29(1), 15-19.). This method relies on the induction of friable callus derived from cotyledons and hypocotyl explants. Method is genotype dependent.
• 1. Micropropagated shoots of the genotype 9BS0448 were used as starting material. Shoots were multiplied in MS salts supplemented with 30 g/l sucrose and 0.25 mg/l benzyladenine (BAP). • 2. To induce friable callus, leaf explants were isolated from micropropagated shoots and incubated in medium containing MS salts including 15 g/l sucrose and 2 mg/l BAP at 28°C in the dark for 7 weeks.
• 3. Friable calli of step 2 were harvested and placed in medium containing MS salts, 30 g/l sucrose, 1 mg/l GA3 and 1 mg/l TDZ, and transferred to separate dishes as control. Similar amount of friable calli were harvested and placed in the same medium supplemented with 0.4 mg/l DZNep. • 4. The dishes were incubated under the light/dark regime (16 h/8 h) at 24°C for 8 days. • 5. Developing shoots were counted under a stereomicroscope, in order to estimate the regeneration capacity.

Sugar beet plants = test: Plant growth after regeneration from shoots induced with temporary DZNep treatment; assay type: in vivo, Beta vulgaris; conditions: shoots from DZNep plates transferred into normal growth medium without DZNep, compared with shoots from control plates
Text: Beside the increased capability for shoot formation the inventors observed that shoots harvested from the control plates and from the plates supplied with DZNep and subsequently transferred into the container with normal growth medium (without DZNep), developed to plant with different biomass and vitality. […] Thus, the DZNep treatment affects also positively the plant growth after regeneration.

sugar beet callus [2] = test: Shoot formation after particle bombardment of sugar beet callus; assay type: cell-based, Beta vulgaris
Experimental: • 1. Friable calli were produced as described above in steps 1 and 2 of Example 1. • 2. An osmotic treatment was carried out by incubating the harvested calli in a medium containing MS salts, 30 g/l sucrose,1 mg/l GA3,1 mg/l Thidiazuron (TDZ),10 g/l agar, pH 6.0, 36 g/l mannitol and 36 g/l sorbitol for 2.5 h at room temperature in the dark. • 3. Preparation and DNA coating of the gold particles was done by standard procedures, as describe in the PDS-1000/He instruction manual. The plasmid pZFNnptll with the red fluorescent marker, tdT, (see Figure 2) was coprecipitated with gold particles. • 4. Calli were bombarded with a PDS-1000/He unit (Bio-Rad), using 30 ng gold particles coated with 500 ng DNA per shot. The rupture pressure was 450 psi and the target tissue was placed at 9 cm distance from the stopping screen. • 5. After bombardment, aliquots of calli tissue were incubated in medium containing MS salts, 30 g/l sucrose, 1 mg/l GA3 and 1 mg/l TDZ, with and without 0.4 mg/l DZNep, in light/dark (16h/8h), at 24 °C for 10 days on separate plates. As a control for standard regeneration, non-bombarded aliquots of calli were treated in the osmotic medium and directly transferred to above medium without DZNep. Shoot number was scored by using a standard binocular.

Nc1nccc2c1ncn2[C@@H]1C=C(CO)[C@@H](O)[C@H]1O [DZNep, 3-Deazaneplanocin A hydrochloride] was tested, and the “mean value of shoots per 1 g callus tissue” value (sugar beet callus [1]; 0.4 mg/l DZNep in shoot induction medium, genotype 9BS0448, 24°C, light/dark 16 h/8 h, control 13.9) was 27.1 shoots per 1 g callus tissue, the “increase of shoots per 1 g callus tissue compared to control” value (sugar beet callus [1]; 0.4 mg/l DZNep versus control without DZNep) was 95% and the “plant biomass and vitality after regeneration” value (Sugar beet plants) was “significantly bigger and more vital”. For the same compound, the “increase of shoots per plate compared to the bombarded control” value (sugar beet callus [2]; bombarded calli with 0.4 mg/l DZNep versus bombarded control with standard medium) was 207%, the “increase of shoots per plate compared to the non-bombarded control” value (sugar beet callus [2]; bombarded calli with 0.4 mg/l DZNep versus non-bombarded control without DZNep) was 108% and the “mean value of shoots per plate” value (sugar beet callus [2]; bombarded calli, 0.4 mg/l DZNep in medium, 10 days, 24 °C, non-bombarded control 4, bombarded control 2.7) was 8.3 shoots per plate.

Reference: patent EP3545756A1, “REGENERATION OF PLANTS IN THE PRESENCE OF INHIBITORS OF THE HISTONE METHYLTRANSFERASE EZH2” (KWS SAAT SE & Co. KGaA, priority 2018, dated 2019)
